According to PubChem BioAssay AID1963856 (Molecular Pharmacology Branch, DTP, NCI, 2024):
The source made the active and inactive calls. Rule for the calls: active = viability on the fitted dose curve at most 10% of control; inactive = the rest.

Tested on: LG0567-F671-PDC KRAS tumor spheroid viability
Test: Anticancer human tumor LG0567-F671-PDC patient-derived lung adenocarcinoma cell line growth inhibition [KRAS2]
Details: spheroids with HUVEC and MSC; for viability, T/C: stronger effect = lower value
Method in brief: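 KRAS-mutant tumor cells were grown as spheroids with HUVEC endothelial cells and human MSCs as stroma. Targeted agents were tested alone and with KRAS pathway inhibitors. Doses started at or near clinical Cmax, or 10 microM, descending half-log.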

[1] = curve of first compound, second compound 0.1 µM
[2] = curve of first compound, second compound 0.316 µM
[3] = curve of first compound, second compound 1 µM
[4] = curve of first compound, second compound 3.16 µM
[5] = curve of first compound, second compound 10 µM
[6] = second compound 0.1 µM, first compound 0.01 µM
[7] = second compound 0.1 µM, first compound 0.0316 µM
[8] = second compound 0.1 µM, first compound 0.1 µM
[9] = second compound 0.316 µM, first compound 0.01 µM
[10] = second compound 0.316 µM, first compound 0.0316 µM
[11] = second compound 0.316 µM, first compound 0.1 µM
[12] = second compound 1 µM, first compound 0.0316 µM
[13] = second compound 1 µM, first compound 0.1 µM
[14] = second compound 3.16 µM, first compound 0.01 µM
[15] = second compound 3.16 µM, first compound 0.0316 µM
[16] = second compound 3.16 µM, first compound 0.1 µM
[17] = second compound 10 µM, first compound 0.01 µM
[18] = second compound 10 µM, first compound 0.0316 µM
[19] = second compound 10 µM, first compound 0.1 µM
[20] = second compound 0.1 µM, first compound 0.316 µM
[21] = second compound 0.1 µM, first compound 1 µM
[22] = second compound 0.1 µM, first compound 3.16 µM
[23] = second compound 0.316 µM, first compound 0.316 µM
[24] = second compound 0.316 µM, first compound 1 µM
[25] = second compound 0.316 µM, first compound 3.16 µM
[26] = second compound 3.16 µM, first compound 0.316 µM
[27] = second compound 3.16 µM, first compound 1 µM
[28] = second compound 3.16 µM, first compound 3.16 µM
[29] = second compound 10 µM, first compound 0.316 µM
[30] = second compound 10 µM, first compound 1 µM
[31] = second compound 10 µM, first compound 3.16 µM
[32] = second compound 0.1 µM, first compound 10 µM
[33] = second compound 0.316 µM, first compound 10 µM
[34] = second compound 1 µM, first compound 0.316 µM
[35] = second compound 1 µM, first compound 1 µM
[36] = second compound 1 µM, first compound 3.16 µM
[37] = second compound 1 µM, first compound 10 µM
[38] = second compound 3.16 µM, first compound 10 µM
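Throughout, for IC50: drug exposure lasted seven days after spheroids formed for three days.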
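Throughout, for viability, T/C: drug exposure lasted seven days after spheroids formed for three days; 100% = DMSO vehicle control viability.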

With `CC(C)n1nc(-c2ccc3oc(N)nc3c2)c2c(N)ncnc21` + C=CC(=O)N1CCN(c2nc(=O)n(-c3c(C)ccnc3C(C)C)c3nc(-c4c(O)cccc4F)c(F)cc23)C(C)C1 the IC50 [1] was less than 0.316 nM, the IC50 [2] was less than 0.316 nM and the IC50 [3] was less than 0.316 nM. The IC50 [4] was less than 0.316 nM, the IC50 [5] was less than 0.316 nM and the viability, T/C (second compound 0.1 µM, first compound 0.000316 µM) was 21.4%. It also gave a viability, T/C (second compound 0.1 µM, first compound 0.001 µM) of 17.1%, a viability, T/C (second compound 0.1 µM, first compound 0.00316 µM) of 14.8% and a viability, T/C [6] of 11.4%. It also gave a viability, T/C [7] of 9.02%, a viability, T/C [8] of 8.13% and a viability, T/C (second compound 0.316 µM, first compound 0.000316 µM) of 20.6%. For the same compound, the viability, T/C (second compound 0.316 µM, first compound 0.001 µM) was 20%, the viability, T/C (second compound 0.316 µM, first compound 0.00316 µM) was 17.2% and the viability, T/C [9] was 11%. It also gave a viability, T/C [10] of 8.62%, a viability, T/C [11] of 7.08% and a viability, T/C (second compound 1 µM, first compound 0.000316 µM) of 23.9%. It also gave a viability, T/C (second compound 1 µM, first compound 0.001 µM) of 14.5%, a viability, T/C (second compound 1 µM, first compound 0.00316 µM) of 14% and a viability, T/C (second compound 1 µM, first compound 0.01 µM) of 10.8%. The viability, T/C [12] was 8.47%, the viability, T/C [13] was 6.2% and the viability, T/C (second compound 3.16 µM, first compound 0.000316 µM) was 20.2%. For the same compound, the viability, T/C (second compound 3.16 µM, first compound 0.001 µM) was 15.8%, the viability, T/C (second compound 3.16 µM, first compound 0.00316 µM) was 12.9% and the viability, T/C [14] was 10.2%. The viability, T/C [15] was 7.41%, the viability, T/C [16] was 8.01% and the viability, T/C (second compound 10 µM, first compound 0.000316 µM) was 20.3%. It also gave a viability, T/C (second compound 10 µM, first compound 0.001 µM) of 16.8%, a viability, T/C (second compound 10 µM, first compound 0.00316 µM) of 13.4% and a viability, T/C [17] of 13.1%. It also gave a viability, T/C [18] of 10.9% and a viability, T/C [19] of 10.3%.

`CC(=O)Nc1cccc(-n2c(=O)n(C3CC3)c(=O)c3c(Nc4ccc(I)cc4F)n(C)c(=O)c(C)c32)c1` was tested, and the viability, T/C (compound 0.0001 µM) was 80.8% [middle of 5 runs], the viability, T/C (compound 0.000316 µM) was 63.3% [middle of 5 runs] and the viability, T/C (compound 0.001 µM) was 55.2% [middle of 5 runs]. The viability, T/C (compound 0.00316 µM) was 50.8% [middle of 5 runs], the viability, T/C (compound 0.01 µM) was 38.5% [middle of 5 runs] and the viability, T/C (compound 0.0316 µM) was 15.6% [middle of 5 runs]. For the same compound, the IC50 (curve of compound) was 2.56 nM [middle of 5 runs].

With `CC(=O)OC12COC1CC(O)C1(C)C(=O)C(O)C3=C(C)C(OC(=O)C(O)C(NC(=O)OC(C)(C)C)c4ccccc4)CC(O)(C(OC(=O)c4ccccc4)C21)C3(C)C` (stereo not given) + CC1OCC2(CCN(c3cnc(Sc4ccnc(N)c4Cl)c(N)n3)CC2)C1N the IC50 [1] was less than 10 nM, the IC50 [2] was less than 10 nM and the IC50 [4] was less than 10 nM. For the same compound, the IC50 [5] was less than 10 nM, the viability, T/C [6] was 41.6% and the viability, T/C [7] was 39.4%. The viability, T/C [8] was 38.7%, the viability, T/C [20] was 40.4% and the viability, T/C [21] was 48%. It also gave a viability, T/C [22] of 38.6%, a viability, T/C [9] of 26.7% and a viability, T/C [10] of 26.7%. The viability, T/C [11] was 24.9%, the viability, T/C [23] was 22.1% and the viability, T/C [24] was 28.1%. It also gave a viability, T/C [25] of 20.6%, a viability, T/C [14] of 14.7% and a viability, T/C [15] of 12.3%. The viability, T/C [16] was 10.3%, the viability, T/C [26] was 10.6% and the viability, T/C [27] was 11.9%. The viability, T/C [28] was 10.3%, the viability, T/C [17] was 14.9% and the viability, T/C [18] was 9.36%. For the same compound, the viability, T/C [19] was 11.2%, the viability, T/C [29] was 9.93% and the viability, T/C [30] was 12.9%. The viability, T/C [31] was 9.85%.

With `O=C(c1cc(Cc2n[nH]c(=O)c3ccccc23)ccc1F)N1CCN(C(=O)C2CC2)CC1` + CC1OCC2(CCN(c3cnc(Sc4ccnc(N)c4Cl)c(N)n3)CC2)C1N the IC50 [1] was greater than 10000 nM, the IC50 [2] was less than 31.6 nM and the IC50 [3] was less than 31.6 nM. For the same compound, the IC50 [4] was less than 31.6 nM, the IC50 [5] was less than 31.6 nM and the viability, T/C [7] was 63.8%. The viability, T/C [8] was 54%, the viability, T/C [20] was 60.3% and the viability, T/C [21] was 59.7%. For the same compound, the viability, T/C [22] was 54.4%, the viability, T/C [32] was 53.2% and the viability, T/C [10] was 37.9%. For the same compound, the viability, T/C [11] was 35.5%, the viability, T/C [23] was 32.3% and the viability, T/C [24] was 32.9%. For the same compound, the viability, T/C [25] was 33.5%, the viability, T/C [33] was 38.2% and the outcome [12] was “inactive”. The viability, T/C [13] was 40%, the viability, T/C [34] was 35.5% and the viability, T/C [35] was 29.8%. The viability, T/C [36] was 32.8%, the viability, T/C [37] was 28.6% and the viability, T/C [15] was 20.9%. The viability, T/C [16] was 20.8%, the viability, T/C [26] was 24.8% and the viability, T/C [27] was 26%. It also gave a viability, T/C [28] of 23.9%, a viability, T/C [38] of 23.8% and a viability, T/C [18] of 10.2%. The viability, T/C [19] was 11%, the viability, T/C [29] was 12.2% and the viability, T/C [30] was 11.8%. The viability, T/C [31] was 14.2% and the viability, T/C (second compound 10 µM, first compound 10 µM) was 17.4%.

In the case of `CC(C)NCC(C(=O)N1CCN(c2ncnc3c2C(C)CC3O)CC1)c1ccc(Cl)cc1` (stereo not given) + C=CC(=O)N1CCN(c2nc(OCC3CCCN3C)nc3c2CCN(c2cccc4cccc(C)c24)C3)CC1CC#N, the IC50 (curve of first compound, second compound 0.0316 µM) is reported as less than 31.6 nM, the IC50 [1] is reported as less than 31.6 nM and the IC50 [2] is reported as less than 31.6 nM. For the same compound, the IC50 [3] was less than 31.6 nM, the IC50 [4] was less than 31.6 nM and the viability, T/C (second compound 0.0316 µM, first compound 0.0316 µM) was 36%. The viability, T/C (second compound 0.0316 µM, first compound 0.1 µM) was 33.7%, the viability, T/C (second compound 0.0316 µM, first compound 0.316 µM) was 24.6% and the viability, T/C (second compound 0.0316 µM, first compound 1 µM) was 22.8%. For the same compound, the viability, T/C (second compound 0.0316 µM, first compound 3.16 µM) was 22.4%, the viability, T/C (second compound 0.0316 µM, first compound 10 µM) was 19.8% and the viability, T/C [7] was 28.5%. It also gave a viability, T/C [8] of 27.5%, a viability, T/C [20] of 18.6% and a viability, T/C [21] of 20.1%. It also gave a viability, T/C [22] of 17%, a viability, T/C [32] of 13.4% and a viability, T/C [10] of 33.9%. The viability, T/C [11] was 29.3%, the viability, T/C [23] was 21% and the viability, T/C [24] was 19.5%. The viability, T/C [25] was 18.6%, the viability, T/C [33] was 15.4% and the viability, T/C [12] was 38.6%. It also gave a viability, T/C [13] of 32.3%, a viability, T/C [34] of 24.6% and a viability, T/C [35] of 18.2%. The viability, T/C [36] was 15.3%, the viability, T/C [37] was 13.3% and the viability, T/C [15] was 8.92%. The viability, T/C [16] was 7.61%, the viability, T/C [26] was 4.92% and the viability, T/C [27] was 2.79%. The viability, T/C [28] was 3.43% and the viability, T/C [38] was 0.37%.
